Measured values taken from paper PMC8765460 (Antimicrobial Agents and Chemotherapy, 2022).
Where two headings read alike, the source gives them in different places.

Assays:
[1] = system: HIV-1; settings: 12 participants switched at week 48
Description: Confirmed virologic withdrawal criteria were defined as 2 consecutive measurements with a decrease in plasma HIV-1 RNA of <1.0 log10 copies/mL by week 16 (unless HIV-1 RNA levels were <400 copies/mL), plasma HIV-1 RNA levels of ≥400 copies/mL at or after week 24, or plasma HIV-1 RNA levels of ≥400 copies/mL after confirmed HIV-1 RNA levels of <400 copies/mL. Participants who met CVW criteria were withdrawn from the study. For this ad hoc assessment carried out after the week 48 analysis, participants with available data through 12 September 2019 were included.

[2] = system: recombinant viruses containing participant-derived integrase sequences; settings: for Fold change in dolutegravir sensitivity: fold change in IC50 relative to wild-type, clinical cutoff 4.0
Method: HIV-1 genotyping and phenotyping of plasma samples at baseline and the first sample of the 2 required to meet CVW criteria were conducted by Monogram Biosciences (South San Francisco, CA) using PhenoSense Integrase, PhenoSense GT, and GeneSeq Integrase assays, with the PhenoSense GT Plus Integrase assay used as a backup alternative in case of initial resistance assay failure.

[3] = molecular target: R263K integrase-DNA complex (Human immunodeficiency virus type 1 group M subtype B, UniProt P04585, R1410K); test: Dissociation of 3H-labeled INSTIs from integrase-DNA complexes (scintillation proximity assay); format: binding, HIV-1; settings: for t1/2 (dissociative half-life): ln 2 divided by mean koff
Method: (§1) Dissociation of INSTIs from integrase-DNA complexes was evaluated as previously described ([35]). Briefly, biotinylated viral long-terminal-repeat DNA duplexes were prepared and attached to streptavidin-coated scintillation proximity assay imaging beads. Wild-type and R263K, G118R, or G118R/E138K mutant integrase-DNA-bead complexes were formed, and unbound protein was removed. […] Relative binding (RB) was calculated as the ratio of dissociation signal to high signal and fit with the equation RB = EP + ΔRB(e^−^k^off^t), where EP is the RB endpoint, koff is the dissociation rate constant, ΔRB is the change in RB, and t is time, using the SigmaPlot program (Systat Software, San Jose, CA).

[4] = molecular target: G118R integrase-DNA complex (Human immunodeficiency virus type 1 group M subtype B, UniProt P04585, G1265R); test: as above; format: binding, HIV-1; settings: for t1/2 (dissociative half-life): ln 2 divided by mean koff
Method: as §1

[5] = molecular target: T1, wild-type integrase-DNA complex (Human immunodeficiency virus type 1 group M subtype B, UniProt P04585); test: as above; format: binding, HIV-1; settings: for t1/2 (dissociative half-life): Wild-type integrase-DNA complex, ln 2 divided by mean koff; for koff: read-out: koff (mean ± SD)
Method: as §1

[6] = molecular target: G118R/E138K integrase-DNA complex (Human immunodeficiency virus type 1 group M subtype B, UniProt P04585, E1285K/G1265R); test: as above; format: binding, HIV-1; settings: for t1/2 (dissociative half-life): G118R, E138K integrase-DNA complex, ln 2 divided by mean koff
Method: as §1

[7] = system: HIV-1 variant clones (participant-derived integrase); test: Clonal integrase phenotyping of variant clones (Monogram Biosciences); format: cell-based; settings: fold change in IC50 relative to wild-type
[8] = system: HIV-1; design: method as in PMID 30732940; settings: cited from earlier work
[9] = molecular target: T1, wild-type integrase-DNA complex; settings: cited from earlier work
[10] = patient 1, Baseline, R263K clones (3 clones)
[11] = patient 1, Baseline, Wild-type clones (5 clones)
[12] = patient 1, CVW (wk 36), Wild-type clones (8 clones)
[13] = patient 2, Baseline, T66I clone (1 clone)
[14] = patient 2, Baseline, Wild-type clones (7 clones)
[15] = patient 2, CVW (wk 36), G118R clones (8 clones)
[16] = patient 3, Baseline, Wild-type clones (16 clones)
[17] = patient 3, CVW (wk 48), G118R, E138K, R263K clones (13 clones)
[18] = patient 3, CVW (wk 48), H51Y, G118R clones (3 clones)

Compound: C[C@@H]1CCO[C@H]2Cn3cc(C(=O)NCc4ccc(F)cc4F)c(=O)c(O)c3C(=O)N12 [Dolutegravir, dolutegravir]
- INSTI resistance in participants who switched from ritonavir-boosted lopinavir to the dolutegravir regimen [1]: None of the 12 participants
- change in in vitro dolutegravir resistance versus baseline levels ([2]; 6 participants with treatment-emergent INSTI resistance-associated substitutions): > 10 fold
- median fold change in dolutegravir susceptibility at CVW ([2]; participants with treatment-emergent integrase substitutions (6 participants)): 25
- Fold change in dolutegravir sensitivity ([2]; patient 1, Baseline, subtype C, INSTI mutation R263R/K): 1.03
- Fold change in dolutegravir sensitivity ([2]; patient 1, Wk 36 (CVW), no INSTI mutation): 0.79
- Fold change in dolutegravir sensitivity ([2]; patient 2, Baseline, subtype B): 1.02
- Fold change in dolutegravir sensitivity ([2]; patient 2, Wk 36 (CVW), G118R): 30
- Fold change in dolutegravir sensitivity ([2]; patient 3, Baseline, subtype C): 1.26
- Fold change in dolutegravir sensitivity ([2]; patient 3, Wk 48 (CVW), H51H/Y, G118R, E138E/K, 263R/K): 15
- Fold change in dolutegravir sensitivity ([2]; patient 4, Baseline, subtype A1, L74I): 0.93
- Fold change in dolutegravir sensitivity ([2]; patient 4, Wk 48 (CVW), L74I, G118G/R, E138E/K, 148Q/R, R263R/K): 20
- Fold change in dolutegravir sensitivity ([2]; patient 5, Baseline, subtype Complex): 0.59
- Fold change in dolutegravir sensitivity ([2]; patient 5, Wk 60 (CVW), E138K, G140S, Q148H, N155H): >106.45
- Fold change in dolutegravir sensitivity ([2]; patient 6, Baseline, subtype C, L74L/I): 0.6
- Fold change in dolutegravir sensitivity ([2]; patient 6, Wk 72 (CVW), T66T/I, L74I, G118R, E138E/K): 22
- Fold change in dolutegravir sensitivity ([2]; patient 7, Baseline, subtype C): 0.98
- Fold change in dolutegravir sensitivity ([2]; patient 7, Wk 168 (CVW), G118R): 28
- fold increase in dissociation rate constant (koff) relative to the wild type [3]: 1.8 fold
- t1/2 (dissociative half-life) [3]: 52 h
- t1/2 (dissociative half-life) ([3]; listed as dolutegravir): ~50 h
- fold increase in dissociation rate constant (koff) relative to the wild type [4]: 8.6 fold
- t1/2 (dissociative half-life) [4]: 10.7 h
- t1/2 (dissociative half-life) ([4]; listed as dolutegravir): ~10 h
- t1/2 (dissociative half-life) [5]: 92 h
- koff [5]: 2.1e-06 ± 1e-07 s⁻¹
- fold increase in dissociation rate constant (koff) relative to the wild type ([6]; G118R plus E138K integrase-DNA complex): 9.0 fold
- t1/2 (dissociative half-life) [6]: 10.1 h
- Fold change in median drug sensitivity [7, 10]: 1.81
- Fold change in median drug sensitivity [7, 11]: 0.87
- Fold change in median drug sensitivity [7, 12]: 0.77
- Fold change in median drug sensitivity [7, 13]: 0.33
- Fold change in median drug sensitivity [7, 14]: 0.93
- Fold change in median drug sensitivity [7, 15]: 30.5
- Fold change in median drug sensitivity [7, 16]: 1.08
- Fold change in median drug sensitivity [7, 17]: 13
- Fold change in median drug sensitivity [7, 18]: 11
- participants meeting CVW who developed treatment-emergent genotypic and phenotypic INSTI resistance ([8]; through the week 48 analysis): 2 of 11
- virologic suppression (HIV-1 RNA levels of <50 copies/mL) versus comparator ([8]; week 48, both in combination with 2 NRTIs): superiority to ritonavir-boosted lopinavir

Compound: Cc1nnc(C(=O)NC(C)(C)c2nc(C(=O)NCc3ccc(F)cc3)c(O)c(=O)n2C)o1 [Raltegravir, raltegravir]
- fold increase in dissociation rate constant (koff) relative to the wild type [3]: no change in koff
- t1/2 (dissociative half-life) [3]: 9.6 h
- fold increase in dissociation rate constant (koff) relative to the wild type [4]: 3.4 fold
- t1/2 (dissociative half-life) [4]: 2.7 h
- t1/2 (dissociative half-life) [5]: 9.2 h
- koff [5]: 2.1e-05 ± 2e-06 s⁻¹
- t1/2 (dissociative half-life) [6]: 3.2 h
- Fold change in median drug sensitivity [7, 10]: 1.09
- Fold change in median drug sensitivity [7, 11]: 0.88
- Fold change in median drug sensitivity [7, 12]: 0.89
- Fold change in median drug sensitivity [7, 13]: 0.58
- Fold change in median drug sensitivity [7, 14]: 1.18
- Fold change in median drug sensitivity [7, 15]: 24
- Fold change in median drug sensitivity [7, 16]: 1.03
- Fold change in median drug sensitivity [7, 17]: 2.03
- Fold change in median drug sensitivity [7, 18]: 4.43
- t1/2 (dissociative half-life), previously measured [9]: 8.8 h
